In US5756450A, “Water soluble monoesters as solubilisers for pharmacologically active compounds and pharmaceutical excipients and novel cyclosporin galenic forms” (Novartis Corporation, priority 1987, dated 1998):

Key:
[1] = Solubilisation in aqueous 10% saccharose monolaurate L-1695 solution (Example 12); format: physicochemical; details: aqueous solution of saccharose monolaurate L-1695, 10% by weight
Description: A solid solution is obtained by removing the water by freeze drying.

[2] = Water solubility of the active compound; format: physicochemical

Compound: CC(=O)[C@H]1CC[C@H]2[C@@H]3CCC4=CC(=O)CC[C@]4(C)[C@H]3CC[C@]12C [Progesterone]
- amount that can be solubilised per ml [1]: 3 mg per ml

Compound: Cc1ccc2c(-c3ccccc3)nc(=O)n(C(C)C)c2c1 [Proquazone, 1-isopropyl-7-methyl-4-phenyl-2(1H)-quinazolinone]
- water solubility [2]: below 0.1 g/100 ml
- amount that can be solubilised per ml [1]: 3 mg per ml
